From ChEMBL document CHEMBL1201862, “PubChem BioAssay data set” (2004)
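Briefly, cells in 96-well plates were exposed to five compound concentrations for 48 h, and endpoints were estimated by linear interpolation. Abbreviation: GI50, concentration required for 50% inhibition of growth.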 Active and inactive are the calls of the source. No stated cut-off is given here; in the data, active = GI50 up to about 1.1 µM and inactive = higher.

Experiments:
Assay in all cases: NCI-60 cell line screen, 48 h
OVCAR-3 = tested on: OVCAR-3
NCI/ADR-RES = tested on: NCI/ADR-RES
HT-29 = tested on: HT-29
NCI-H23 = tested on: NCI-H23
SW-620 = tested on: SW-620
T47D = tested on: T47D
NCI-H226 = tested on: NCI-H226
786-0 = tested on: 786-0
LOX IMVI = tested on: LOX IMVI
SR = tested on: SR
UO-31 = tested on: UO-31
HCT-15 = tested on: HCT-15
PC-3 = tested on: PC-3
MDA-MB-231 = tested on: MDA-MB-231
M14 = tested on: M14
MCF7 = tested on: MCF7
MOLT-4 = tested on: MOLT-4
HL-60 = tested on: HL-60
HCC 2998 = tested on: HCC 2998
SK-MEL-5 = tested on: SK-MEL-5
UACC-62 = tested on: UACC-62
A498 = tested on: A498
SK-OV-3 = tested on: SK-OV-3
BT-549 = tested on: BT-549
MDA-MB-435 = tested on: MDA-MB-435
DU-145 = tested on: DU-145
SNB-75 = tested on: SNB-75
SF-295 = tested on: SF-295
HOP-62 = tested on: HOP-62
NCI-H522 = tested on: NCI-H522
KM12 = tested on: KM12
SF-268 = tested on: SF-268
HOP-92 = tested on: HOP-92
COLO 205 = tested on: COLO 205
CCRF-CEM = tested on: CCRF-CEM
MDA-N = tested on: MDA-N
U-251 = tested on: U-251
ACHN = tested on: ACHN
UACC-257 = tested on: UACC-257
OVCAR-5 = tested on: OVCAR-5
TK-10 = tested on: TK-10
NCI-H460 = tested on: NCI-H460
K562 = tested on: K562
OVCAR-8 = tested on: OVCAR-8
EKVX = tested on: EKVX
HCT-116 = tested on: HCT-116
IGROV-1 = tested on: IGROV-1
OVCAR-4 = tested on: OVCAR-4
A549 = tested on: A549
SK-MEL-28 = tested on: SK-MEL-28
CAKI-1 = tested on: CAKI-1
SNB-19 = tested on: SNB-19
Hs-578T = tested on: Hs-578T
SN12C = tested on: SN12C
RXF 393 = tested on: RXF 393
Malme-3M = tested on: Malme-3M
SK-MEL-2 = tested on: SK-MEL-2
RPMI-8226 = tested on: RPMI-8226
SF-539 = tested on: SF-539

## O=S(=O)(c1ccccc1)[C@@H]1[C@H]2C=C[C@](CS)(O2)[C@H]1S(=O)(=O)c1ccccc1
OVCAR-3
  GI50: 19.1 µM (inactive)
NCI/ADR-RES
  GI50: 53.5 µM (inactive)
HT-29
  GI50: > 100 µM (inactive)
NCI-H23
  GI50: 79.6 µM (inactive)
SW-620
  GI50: 12.4 µM (inactive)
T47D
  GI50: 84.3 µM (inactive)
NCI-H226
  GI50: > 100 µM (inactive)
786-0
  GI50: 30 µM (inactive)
LOX IMVI
  GI50: 44.6 µM (inactive)
SR
  GI50: 25.6 µM (inactive)
UO-31
  GI50: > 100 µM (inactive)
HCT-15
  GI50: 15.2 µM
PC-3
  GI50: 35.6 µM (inactive)
MDA-MB-231
  GI50: > 100 µM (inactive)
M14
  GI50: > 100 µM (inactive)
MCF7
  GI50: 62.5 µM (inactive)
MOLT-4
  GI50: 16.5 µM (inactive)
HL-60
  GI50: 32.8 µM (inactive)
HCC 2998
  GI50: > 100 µM (inactive)
SK-MEL-5
  GI50: > 100 µM (inactive)
UACC-62
  GI50: > 100 µM (inactive)
A498
  GI50: > 100 µM (inactive)
SK-OV-3
  GI50: > 100 µM (inactive)
BT-549
  GI50: 35.2 µM (inactive)
MDA-MB-435
  GI50: 46.2 µM (inactive)
DU-145
  GI50: > 100 µM (inactive)
SNB-75
  GI50: 67.5 µM (inactive)
SF-295
  GI50: > 100 µM (inactive)
HOP-62
  GI50: > 100 µM (inactive)
NCI-H522
  GI50: 14.7 µM (inactive)
KM12
  GI50: > 100 µM (inactive)
SF-268
  GI50: > 100 µM (inactive)
HOP-92
  GI50: > 100 µM (inactive)
COLO 205
  GI50: 79.3 µM (inactive)
CCRF-CEM
  GI50: 2.46 µM (inactive)
MDA-N
  GI50: 82.8 µM (inactive)
U-251
  GI50: > 100 µM (inactive)
ACHN
  GI50: 76.9 µM (inactive)
UACC-257
  GI50: > 100 µM (inactive)
OVCAR-5
  GI50: > 100 µM (inactive)
TK-10
  GI50: > 100 µM (inactive)
NCI-H460
  GI50: > 100 µM (inactive)
K562
  GI50: 14.4 µM (inactive)
OVCAR-8
  GI50: 50.1 µM (inactive)
EKVX
  GI50: 78.9 µM (inactive)
HCT-116
  GI50: 13.3 µM (inactive)
IGROV-1
  GI50: > 100 µM (inactive)
OVCAR-4
  GI50: 42.1 µM (inactive)
A549
  GI50: > 100 µM (inactive)
SK-MEL-28
  GI50: > 100 µM (inactive)
CAKI-1
  GI50: 31.6 µM (inactive)
SNB-19
  GI50: > 100 µM (inactive)
Hs-578T
  GI50: > 100 µM (inactive)
SN12C
  GI50: 38.2 µM (inactive)
RXF 393
  GI50: 43.6 µM (inactive)
Malme-3M
  GI50: > 100 µM (inactive)

## c1ccc([I+]c2ccccc2)cc1
OVCAR-3
  GI50: > 100 µM (inactive)
NCI/ADR-RES
  GI50: > 100 µM (inactive)
HT-29
  GI50: > 100 µM (inactive)
NCI-H23
  GI50: > 100 µM (inactive)
SW-620
  GI50: > 100 µM (inactive)
T47D
  GI50: > 100 µM (inactive)
NCI-H226
  GI50: > 100 µM (inactive)
786-0
  GI50: > 100 µM (inactive)
LOX IMVI
  GI50: > 100 µM (inactive)
SR
  GI50: > 100 µM (inactive)
UO-31
  GI50: > 100 µM (inactive)
HCT-15
  GI50: > 100 µM
PC-3
  GI50: > 100 µM (inactive)
MDA-MB-231
  GI50: > 100 µM (inactive)
M14
  GI50: > 100 µM (inactive)
MCF7
  GI50: > 100 µM (inactive)
MOLT-4
  GI50: > 100 µM (inactive)
HL-60
  GI50: > 100 µM (inactive)
HCC 2998
  GI50: > 100 µM (inactive)
SK-MEL-5
  GI50: > 100 µM (inactive)
A498
  GI50: > 100 µM (inactive)
SK-MEL-2
  GI50: > 100 µM (inactive)
SK-OV-3
  GI50: > 100 µM (inactive)
BT-549
  GI50: > 100 µM (inactive)
MDA-MB-435
  GI50: > 100 µM (inactive)
DU-145
  GI50: > 100 µM (inactive)
RPMI-8226
  GI50: > 100 µM (inactive)
SF-295
  GI50: > 100 µM (inactive)
HOP-62
  GI50: > 100 µM (inactive)
NCI-H522
  GI50: > 100 µM (inactive)
KM12
  GI50: > 100 µM (inactive)
SF-268
  GI50: > 100 µM (inactive)
HOP-92
  GI50: 70 µM (inactive)
COLO 205
  GI50: > 100 µM (inactive)
CCRF-CEM
  GI50: > 100 µM (inactive)
MDA-N
  GI50: > 100 µM (inactive)
U-251
  GI50: > 100 µM (inactive)
ACHN
  GI50: > 100 µM (inactive)
UACC-257
  GI50: > 100 µM (inactive)
OVCAR-5
  GI50: > 100 µM (inactive)
TK-10
  GI50: > 100 µM (inactive)
NCI-H460
  GI50: > 100 µM (inactive)
K562
  GI50: > 100 µM (inactive)
OVCAR-8
  GI50: > 100 µM (inactive)
SF-539
  GI50: > 100 µM (inactive)
EKVX
  GI50: > 100 µM (inactive)
HCT-116
  GI50: > 100 µM (inactive)
IGROV-1
  GI50: > 100 µM (inactive)
OVCAR-4
  GI50: > 100 µM (inactive)
A549
  GI50: > 100 µM (inactive)
SK-MEL-28
  GI50: > 100 µM (inactive)
CAKI-1
  GI50: > 100 µM (inactive)
SNB-19
  GI50: > 100 µM (inactive)
Hs-578T
  GI50: > 100 µM (inactive)
SN12C
  GI50: > 100 µM (inactive)
RXF 393
  GI50: > 100 µM (inactive)
Malme-3M
  GI50: > 100 µM (inactive)
